How the values were obtained:
[1] = biological target: GDP-bound KRAS protein (aa 1-169), G12D and C118A; SOS-mediated nucleotide exchange (Homo sapiens (Human), UniProt P01116, C118A/G12D); assay: KRAS G12D Coupled Nucleotide Exchange Assay; type: biochemical; conditions: 2 h compound pre-incubation, GTP, cRAF AlphaScreen
Procedure: Purified GDP-bound KRAS protein (aa 1-169), containing both G12D and C118A amino acid substitutions and an N-terminal His-tag, was pre-incubated in assay buffer (25 mM HEPES pH 7.4, 10 mM MgCl2, and 0.01% Triton X-100) with a compound dose-response titration for 2 h. Following compound pre-incubation, purified SOS protein (aa 564-1049) and GTP (Roche 10106399001) were added to the assay wells and incubated for an additional 30 min. […] The assay plates were then read on a PerkinElmer En Vision Multilabel Reader, using AlphaScreen® technology, and data were analyzed using a 4-parameter logistic model to calculate IC50 values.

[2] = biological target: His-tagged KRAS G12D protein (Homo sapiens (Human), UniProt P01116, G12D); assay: KRAS G12D TR-FRET Assay; type: binding; conditions: biotinylated KRPep-2d, 10 μM GDP
Procedure: Compounds of interest were prepared in a dose-response titration in DMSO, and 80 nL were added via Labcyte Echo to each well of a 384-well plate (Perkin Elmer 6008280). The His-tagged KRAS G12D protein (Amgen) was diluted to 20 nM in Assay Buffer (20 mM HEPES, pH 7.4, 10 mM MgCl2, 50 mM NaCl, 0.1% BSA, 0.01% Tween-20, 10 μM GDP) and 2 μL was added to the appropriate wells of the 384-well plate. The plate was incubated for 30 minutes at rt. Biotinylated KRPep-2d substrate (Amgen) was diluted to […] in Assay Buffer and 2 AL was added to all wells and incubated for 1 hour at room temperature. Detection Reagent (0.4 nM LANCE Eu-W1024 Anti-6×His (Perkin Elmer AD0401), 5 nM streptavidin-d2 (Cisbio 610SADLA)) was prepared in Assay Buffer, then 4 AL was added to the plate and incubated for 1 h at rt. Plates were read using PerkinElmer En Vision (ex: 320 nm, em1: 665 nm, em2: 615 nm) and em1/em2 data was used to generate curve fits using a 4-parameter logistic model to calculate IC50 values.

[3] = test system: Phosphorylation of ERK1/2 in AsPC-1 cells; assay: Phospho-ERK1/2 MSD Assay; type: cell-based; conditions: Homo sapiens, ASPC1, 2 h, read-out: 2 h p-ERK (AsPC-1 cells), IC50 (μM), AsPC-1 cells, 2 h compound treatment
Procedure: AsPC-1 (ATCC® CRL-1682TM) cells were cultured in RPMI 1640 Medium (ThermoFisher Scientific 11875093) containing 10% fetal bovine serum (ThermoFisher Scientific 16000044) and 1× penicillin-streptomycin-glutamine (ThermoFisher Scientific 10378016). Sixteen hours prior to compound treatment, AsPC-1 cells were seeded in 96-well cell culture plates at a density of 25,000 cells/well and incubated at 37° C., 5% CO2. A compound dose-response titration was diluted in growth media, added to appropriate wells of a cell culture plate, and then incubated at 37° C., 5% CO2 for 2 hours. Following compound treatment, cells were washed with ice-cold Dulbecco's phosphate-buffered saline, no Ca^2+ or Mg^2+ (ThermoFisher Scientific 14190144), and then lysed in RIPA buffer (50 mM Tris-HCl pH 7.5, 1% Igepal, 0.5% sodium deoxycholate, 150 mM NaCl, and 0.5% sodium dodecyl sulfate) containing protease inhibitors (Roche 4693132001) and phosphatase inhibitors (Roche 4906837001). Phosphorylation of ERK1/2 in compound-treated lysates was assayed using Phospho-ERK1/2 Whole Cell Lysate kits (Meso Scale Discovery K151DWD) according to the manufacturer's protocol. Assay plates were read on a Meso Scale Discovery Sector Imager 6000, and data were analyzed using a 4-parameter logistic model to calculate IC50 values.

Chain of His-tagged KRAS G12D protein (P01116-2 other isoform, or with tags, fused parts or gaps G12D): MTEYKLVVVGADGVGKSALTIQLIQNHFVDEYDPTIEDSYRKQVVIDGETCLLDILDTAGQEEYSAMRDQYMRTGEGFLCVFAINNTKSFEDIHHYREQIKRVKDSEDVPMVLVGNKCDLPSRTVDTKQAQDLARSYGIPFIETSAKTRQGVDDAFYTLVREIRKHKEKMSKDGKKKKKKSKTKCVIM
Chain of GDP-bound KRAS protein (aa 1-169), G12D and C118A; SOS-mediated nucleotide exchange (P01116 other isoform, or with tags, fused parts or gaps G12D/C118A): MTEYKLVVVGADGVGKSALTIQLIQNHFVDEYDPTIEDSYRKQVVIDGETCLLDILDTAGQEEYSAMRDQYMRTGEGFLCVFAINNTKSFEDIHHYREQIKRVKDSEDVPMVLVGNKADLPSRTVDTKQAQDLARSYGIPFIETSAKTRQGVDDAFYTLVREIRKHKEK

| SMILES | IC50 [1] [nM] | IC50 [2] [nM] | IC50 [3] [µM] |
| --- | --- | --- | --- |
| CC(C)(O)COc1nc(N2CCOC[C@@](C)(O)C2)c2cc(Cl)c(-c3ccc(F)c4sc(N)c(C#N)c34)c(F)c2n1 (single isomer, unassigned) [Example 67] | 34 | 61 |  |
| N#Cc1c(N)sc2c(F)ccc(-c3c(Cl)cc4c(N5CCOCC(=O)C5)nc(OC[C@@]56CCCN5C[C@H](F)C6)nc4c3F)c12 [Example 6, 2-Amino-4-(6-chloro-8-fluoro-2-(((2R,7aS)-2-fluorotetrahydro-1H-pyrrolizin-7a(5H)-yl)methoxy)-4-(6-oxo-1,4-oxazepan-4-yl)quinazolin-7-yl)-7-fluorobenzo[b] thiophene-3-carbonitrile] |  |  | 0.143 |
| N#Cc1c(N)sc2c(F)ccc(-c3c(Cl)cc4c(N5CCCC[C@@H](C#N)C5)nc(OC[C@@]56CCCN5C[C@H](F)C6)nc4c3F)c12 [Example 68, (3R)-1-(7-(2-amino-3-cyano-7-fluorobenzo[b]thiophen-4-yl)-6-chloro-8-fluoro-2-(((2R,7aS)-2-fluorotetrahydro-1H-pyrrolizin-7a(5H)-yl)methoxy)quinazolin-4-yl)azepane-3-carbonitrile] | 91 | 144 |  |
| C[C@@]1(O)CCCN(c2nc(OC[C@@]34CCCN3C[C@H](F)C4)nc3c(F)c(-c4ccc(F)c5sc(N)c(C#N)c45)ncc23)C1 [Example 56, 2-Amino-7-fluoro-4-(8-fluoro-2-(((2R,7aS)-2-fluorotetrahydro-1H-pyrrolizin-7a(5H)-yl)methoxy)-4-((R)-3-hydroxy-3-methylpiperidin-1-yl)pyrido[4,3-d]pyrimidin-7-yl)benzo[b] thiophene-3-carbonitrile] | 30 | 17 |  |
| CC1(O)COCCN(c2nc(OC[C@@]34CCCN3C[C@H](F)C4)nc3c(F)c(-c4ccc(F)c5sc(N)c(C#N)c45)c(Cl)cc23)C1 (single isomer, unassigned) [Example 23] | 42 | 44 |  |
| N#Cc1c(N)sc2c(F)ccc(-c3c(Cl)cc4c(N5CCCC6(CCS6(=O)=O)C5)nc(OC[C@@]56CCCN5C[C@H](F)C6)nc4c3F)c12 (stereo partly drawn) [Example 10, 2-Amino-4-(6-chloro-4-(1,1-dioxido-1-thia-6-azaspiro[3.5]nonan-6-yl)-8-fluoro-2-(((2R,7aS)-2-fluorotetrahydro-1H-pyrrolizin-7a(5H)-yl)methoxy)quinazolin-7-yl)-7-fluorobenzo[b] thiophone-3-carbonitrile] | 36 | 44 |  |
| N#Cc1c(N)sc2c(F)ccc(-c3c(Cl)cc4c(N5CCC=CC(O)C5)nc(OC[C@@]56CCCN5C[C@H](F)C6)nc4c3F)c12 (stereo partly drawn) [Example 29, 2-Amino-4-(6-chloro-8-fluoro-2-(((2R,7aS)-2-fluorotetrahydro-1H-pyrrolizin-7a(5H)-yl)methoxy)-4-(3-hydroxy-2,3,6,7-tetrahydro-1H-azepin-1-yl)quinazolin-7-yl)-7-fluorobenzo[b] thiophene-3-carbonitrile] |  |  | 0.081 |
| N#Cc1c(N)sc2c(F)ccc(-c3c(Cl)cc4c(N5CCCC6(CCOC6)C5)nc(OC[C@@]56CCCN5C[C@H](F)C6)nc4c3F)c12 (stereo partly drawn) [Example 2, 2-Amino-4-(6-chloro-8-fluoro-2-(((2R,7aS)-2-fluorotetrahydro-1H-pyrolizin-7a(5H)-yl)methoxy)-4-(2-oxa-7-azaspiro[4.5]decan-7-yl)quinazolin-7-yl)-7-fluorobenzo[b] thiophene-3-carbonitrile] | 46 | 34 |  |
| N#Cc1c(N)sc2c(F)ccc(-c3c(Cl)cc4c(N5CCCC6(CNC(=O)O6)C5)nc(OC[C@@]56CCCN5C[C@H](F)C6)nc4c3F)c12 (stereo partly drawn) [Example 17, 2-Amino-4-(6-chloro-8-fluoro-2-(((2R,7aS)-2-fluorotetrahydro-1H-pyrrolizin-7a(5H)-yl)methoxy)-4-(2-oxo-1-oxa-3,7-diazaspiro[4.5]decan-7-yl)quinazolin-7-yl)-7-fluorobenzo[b] thiophene-3-carbonitrile] |  |  | 0.768 |
| N#Cc1c(N)sc2c(F)ccc(-c3c(Cl)cc4c(N5CCCC(C#N)CC5)nc(OC[C@@]56CCCN5C[C@H](F)C6)nc4c3F)c12 (stereo partly drawn) [Example 3, 1-(7-(2-Amino-3-cyano-7-fluorobenzo[b]thiophen-4-yl)-6-chloro-8-fluoro-2-(((2R,7a.S)-2-fluorotetrahydro-1H-pyrrolizin-7a(5H)-yl)methoxy)quina-zolin-4-yl)azepane-4-carbonitrile] |  |  | 0.105 |
| N#Cc1c(N)sc2c(F)ccc(-c3c(Cl)cc4c(N5CC6CC(O)C(C6)C5)nc(OC[C@@]56CCCN5C[C@H](F)C6)nc4c3F)c12 (mixture of isomers) [Example 7, 2-Amino-4-(6-chloro-8-fluoro-2-(((2R,7aS)-2-fluorotetrahydro-1H-pyrrolizin-7a(5H)-yl)methoxy)-4-(rac-(1R,5R,6R)-6-hydroxy-3-azabicyclo[3.2.1]octan-3-yl)quinazolin-7-yl)-7-fluorobenzo[6] thiophene-3-carbonitrile] |  |  | 0.264 |
| N#Cc1c(N)sc2c(F)ccc(-c3c(Cl)cc4c(N5CCCC[C@@H](O)C5)nc(OC[C@@]56CCCN5C[C@H](F)C6)nc4c3F)c12 [Example 4, 2-Amino-4-(6-chloro-8-fluoro-2-(((2R,7aS)-2-fluorotetrahydro-1H-pyrrolizin-7a(5H)-yl)methoxy)-4-((R)-3-hydroxyazepan-1-yl)quinazolin-7-yl)-7-fluorobenzo[b] thiophene-3-carbonitrile] |  |  | 0.041 |
| N#Cc1c(N)sc2c(F)ccc(-c3c(Cl)cc4c(N5CCC6(CCCS6(=O)=O)C5)nc(OC[C@@]56CCCN5C[C@H](F)C6)nc4c3F)c12 (stereo partly drawn) [Example 9, 2-Amino-4-(6-chloro-4-(1,1-dioxido-1-thia-7-azaspiro[4.4]nonan-7-yl)-8-fluoro-2-(((2R,7aS)-2-fluorotetrahydro-1H-pyrrolizin-7a(5H)-yl)methoxy)quinazolin-7-yl)-7-fluorobenzo[b] thiophene-3-carbonitrile] | 41 | 60 |  |
| N#Cc1c(N)sc2c(F)ccc(-c3c(Cl)cc4c(N5CCCOCCC5)nc(OC[C@@]56CCCN5C[C@H](F)C6)nc4c3F)c12 (single isomer, unassigned) [Example 19] | 94 | 164 |  |
| N#Cc1c(N)sc2c(F)ccc(-c3c(Cl)cc4c(N5CCCCCC5)nc(OC[C@@]56CCCN5C[C@H](F)C6)nc4c3F)c12 [Example 1, 2-Amino-4-(4-(azepan-1-yl)-6-chloro-8-fluoro-2-(((2R,7aS)-2-fluorotetrahydro-1H-pyrrolizin-7a(5H)-yl)methoxy)quinazolin-7-yl)-7-fluorobenzo[b]thiophene-3-carbonitrile] |  |  | 0.052 |
| N#Cc1c(N)sc2c(F)ccc(-c3c(Cl)cc4c(N5CCCC[C@H](C#N)C5)nc(OC[C@@]56CCCN5C[C@H](F)C6)nc4c3F)c12 [Example 69, (3S)-1-(7-(2-amino-3-cyano-7-fluorobenzo[b]thiophen-4-yl)-6-chloro-8-fluoro-2-(((2R,7aS)-2-fluorotetrahydro-1H-pyrrolizin-7a(5H)-yl)methoxy)quinazolin-4-yl)azepane-3-carbonitrile] | 71 | 139 |  |
| N#Cc1c(N)sc2c(F)ccc(-c3c(Cl)cc4c(N5CCCCC(=O)C5)nc(OC[C@@]56CCCN5C[C@H](F)C6)nc4c3F)c12 [Example 8, 2-Amino-4-(6-chloro-8-fluoro-2-(((2R,7aS)-2-fluorotetrahydro-1H-pyrrolizin-7a(5H)-yl)methoxy)-4-(3-oxoazepan-1-yl)quinazolin-7-yl)-7-fluorobenzo[b] thiophene-3-carbonitrile] |  |  | 0.015 |

— patent US20250163064A1, “QUINAZOLINE COMPOUNDS AND USES THEREOF AS INHIBITORS OF MUTANT KRAS PROTEINS” (AMGEN INC., priority 2022, published 2025)
